{
  "source": "patent US20200222347A1",
  "about": "“ANTIMICROBIALS AND METHODS OF USE THEREOF” (priority 2013, published 2020)",
  "key": {"[1]": {"tested_on": "Pseudomonas Aeruginosa ATCC 700888 biofilm", "experiment": "Single spray on biofilm on glass slides, time study, Example 8", "conditions": "for log reduction: 30% PCA spray in isopropyl alcohol, vs positive control slides"}, "[2]": {"tested_on": "P. aeruginosa (ACTA 27853)", "type": "in vivo", "conditions": "for bacterial burden of P. aeruginosa in skin tissue: 25 mM topical in water"}, "Legionella 43662": {"tested_on": "Legionella 43662", "type": "cell-based"}, "[3]": {"tested_on": "E. coli, ATTC 8739 and ATCC 43895", "experiment": "Kirby-Bauer disc diffusion antimicrobial susceptibility", "type": "cell-based", "conditions": "100 mM, carrier water; 18-24 hours for aerobes"}, "[4]": {"tested_on": "Staphylococcus aureus ATCC 33591 (MRSA) biofilm", "experiment": "Single spray on biofilm on glass slides, time study, Example 8", "conditions": "for CFUs after spray: 30% PCA spray"}, "[5]": {"tested_on": "Klebssilla pneumonia ATCC4352", "experiment": "Paper disc test with water or propylene glycol, Example 10", "type": "cell-based"}, "[6]": {"tested_on": "Pseudomonas Aeruginosa ATCC 700888 biofilm", "experiment": "Drip flow biofilm reactor, PCA coated cloth and sintered mesh, Example 7", "type": "cell-based", "from_the_text": "The cloth was dried when tested."}, "[7]": {"experiment": "Amount of PCA that can be dissolved", "type": "physicochemical", "procedure": "For instance the dose used on an open rodent taped stripped skin would be conditioned by the wound's tolerance of the vehicle which in this case would be water, normal saline or like. The amount of PCA for instance that can be dissolved in water is 1.24 grams per 100 ml. In the rodent the effective dose of C-3-G and PCA were expressed in […] (mM) as 25 to 200 mM dose. Conversion factors are necessary to make comparisons to larger doses used in other applications. 78 mM (mmole/L) PCA would be 12.021 g PCA per Liter. Therefore 25 mM/L would be 3.852 grams per liter or […]. The fluid applied was […] or 0.1 milliliter. Therefore, for example, the dose of PCA that was bactericidal on Pseudomonas aeruginosa on taped stripped rodent skin was 0.00038 grams. When treating intact normal human skin as in the Loma Linda Medical School testing, it was shown the 1.24 gram in 100 ml of water would only decrease the number of colonies of Propionibacterium acnes. Note that there was no skin penetration properties to water by this method. The increase of PCA concentration was possible to as much as 17% when in composition of matter was 70% isopropyl alcohol with propylene glycol and essences of peppermint oil. This composition had skin penetration properties. However the amount of liquid applied was no more than one milliliter by cotton swab. Therefore the topical dose on intact human skin was […] (estimated). This is many times that required for traumatized taped stripped skin.\nFor compositions applied to the skin or a bandage the PCA crystals need to be dissolved in a liquid. […] The use of isopropyl alcohol in the combination was not an obvious choice because isopropyl alcohol alone only is marginally effective in killing bacteria. So even after using isopropyl alcohol to dissolve the PCA, the inventor discovered that even at 10% PCA in isopropyl alcohol, the composition was only marginally effective. […]"}, "[8]": {"tested_on": "Pseudomonas aeruginosa ATCC9027", "experiment": "Paper disc test with water or propylene glycol, Example 10"}, "[9]": {"tested_on": "Staphylococcus aureus ATCC 33591 (MRSA) biofilm", "experiment": "Drip flow biofilm reactor, PCA coated cloth and sintered mesh, Example 7", "conditions": "30% concentration of PCA (FIG. 36)"}, "all bacteria tested": {"tested_on": "all bacteria tested", "experiment": "In vitro antimicrobial susceptibility, whole panel", "type": "cell-based"}, "P. aeruginosa": {"tested_on": "P. aeruginosa", "experiment": "Kirby-Bauer disc diffusion antimicrobial susceptibility", "type": "cell-based, Pseudomonas aeruginosa", "conditions": "100 mM, carrier water; 18-24 hours for aerobes"}, "[10]": {"tested_on": "normal human skin bacterial resident flora", "experiment": "Human skin disinfection study, Loma Linda, Phase 1", "type": "in vivo", "procedure": "A randomized double blinded study was performed at Loma Linda Medical School. It involved 4 phases over two years' time. The methods were as follows:\n[…] […] The controls were Chloroprep (2% Chlorhexidine in 70% isopropyl alcohol) and Betadine (9.0% to 12.0% available iodine in water). Cultures were taken before application and 20 minutes after application. The initial harvest was by a surface swab. Application was by soaked sponge, without force or scrubbing. The second harvest was performed with the back edge of a sterile knife blade scraping with pressure in attempt to maximize the harvest from the deeper sebaceous glands and hair follicles. The specimens were placed in culture media. Bacteriology was performed at WuXiAppTec in Marrietta, Ga."}, "P. acnes 6919": {"tested_on": "P. acnes 6919", "experiment": "Kirby-Bauer disc diffusion antimicrobial susceptibility", "type": "cell-based", "conditions": "100 mM, carrier water"}, "[11]": {"tested_on": "P. aeruginosa (ACTA 9027)", "type": "in vivo"}, "C difficile": {"tested_on": "C difficile", "experiment": "Kirby-Bauer disc diffusion antimicrobial susceptibility", "type": "cell-based", "conditions": "100 mM, carrier water; 48 hours for anaerobes"}, "[12]": {"conditions": "1% PCA in water, 20 minutes after application"}},
  "note": "“Also recorded” adds a separate entry of the source. Like-named read-outs stand apart in the source and are kept apart here.",
  "data": [
    {"smiles": "O=C(O)c1ccc(O)c(O)c1", "note": "[PCA, Protocatechuic acid]", "values": [
      {"measurement": "log reduction", "setting": "[1]; after 30 minutes", "result": 3.3, "unit": "log"},
      {"measurement": "log reduction", "setting": "[1]; after 60 minutes", "result": 2.2, "unit": "log"},
      {"measurement": "reduction in the number colony forming units", "setting": "[1]; 30% PCA spray, after 60 minutes", "result": 99.9, "unit": "%"},
      {"measurement": "bacterial burden of P. aeruginosa in skin tissue", "setting": "[2]; 48 and 96 hours", "result": "reduced the bacterial burden"},
      {"measurement": "bacterial burden of P. aeruginosa in skin tissue", "setting": "[2]; 48 hours", "result": "significantly decreased; also recorded: effective"},
      {"measurement": "dose that was bactericidal on Pseudomonas aeruginosa on taped stripped rodent skin", "setting": "[2]; calculated from 25 mM and applied volume", "result": 0.00038, "unit": "grams"},
      {"measurement": "kill of Pseudomonas aeruginosa", "setting": "[2]; in 48 hours, both reagents and dose (PCA 25, 50 mM; C3G 100, 200 mM)", "result": "10,000 fold"},
      {"measurement": "action on stripped skin wound of a rodent", "setting": "[2]; topical, various calculated doses, in 48 to 96 hours", "result": "bactericidal"},
      {"measurement": "effectiveness against Legionella 43662", "setting": "Legionella 43662", "result": "effective"},
      {"measurement": "effectiveness against E. coli", "setting": "[3]", "result": "effective"},
      {"measurement": "CFUs after spray", "setting": "[4]; after 30 minutes, from 60 million CFUs", "result": 3, "unit": "million"},
      {"measurement": "CFUs after spray", "setting": "[4]; after 60 minutes, from 25 million", "result": 2, "unit": "million CFUs"},
      {"measurement": "biofilms killed", "setting": "[4]; […], 30 minutes", "result": 90, "unit": "%"},
      {"measurement": "inhibition of growth under the sample", "setting": "[5]; PPG", "result": "I"},
      {"measurement": "zone of inhibition", "setting": "[5]; PPG", "result": 3, "unit": "mm"},
      {"measurement": "inhibition of growth under the sample", "setting": "[5]; Water", "result": "I"},
      {"measurement": "zone of inhibition", "setting": "[5]; Water", "result": 2, "unit": "mm"},
      {"measurement": "effectiveness against Pseudomonas biofilm", "setting": "[6]; 10% concentration of PCA (FIG. 33)", "result": "not as effective"},
      {"measurement": "effectiveness against Pseudomonas biofilm", "setting": "[6]; 20% concentration of PCA in 70% isopropyl alcohol, dried coating (FIG. 34)", "result": "effective; also recorded: very effective"},
      {"measurement": "concentration possible in solution", "setting": "[7]; 70% isopropyl alcohol with propylene glycol and essences of peppermint oil", "result": "≤ 17", "unit": "%"},
      {"measurement": "amount that can be dissolved in water", "setting": "[7]; Water", "result": 1.24, "unit": "grams per 100 ml"},
      {"measurement": "concentration achieved when dissolving in water", "setting": "[7]; Water", "result": "≤ 1.24", "unit": "%"},
      {"measurement": "inhibition of growth under the sample", "setting": "[8]; PPG", "result": "I"},
      {"measurement": "zone of inhibition", "setting": "[8]; PPG", "result": 4, "unit": "mm"},
      {"measurement": "inhibition of growth under the sample", "setting": "[8]; Water", "result": "I"},
      {"measurement": "zone of inhibition", "setting": "[8]; Water", "result": 10, "unit": "mm"},
      {"measurement": "effectiveness against MRSA biofilm", "setting": "[9]", "result": "effective; also recorded: very effective"},
      {"measurement": "antibiotic properties (summary)", "setting": "all bacteria tested", "result": "broad spectrum antibiotic"},
      {"measurement": "overall effectiveness in the in vitro panel", "setting": "all bacteria tested; 100 mM, carrier water, 18-24 hours for aerobes, 48 hours for anaerobes", "result": "effective against all bacteria tested"},
      {"measurement": "effectiveness against P. aeruginosa", "setting": "P. aeruginosa", "result": "effective; also recorded: some effectiveness"},
      {"measurement": "anaerobic cultures with no growth", "setting": "[10]; [12]", "result": "6 of 22"},
      {"measurement": "subjects with no growth on aerobic culture", "setting": "[10]; [12]", "result": "7 of 22"},
      {"measurement": "anaerobic cultures with reduced colony growth", "setting": "[10]; 1% PCA in water, of 22 cultures", "result": 15},
      {"measurement": "aerobic cultures with reduced growth", "setting": "[10]; 1% PCA in water, of 22 subjects", "result": 10, "unit": "cultures"},
      {"measurement": "effectiveness as skin disinfectant, Phase 1", "setting": "[10]; 20 minutes after application", "result": "partially effective"},
      {"measurement": "effectiveness against P. acnes (growth inhibition)", "setting": "P. acnes 6919", "result": "effective; also recorded: able to kill; also recorded: bactericidal"},
      {"measurement": "most effective concentration for decreasing bacterial burden", "setting": "[11]; of 50, 100 and 200 mM tested, 96 hours", "result": 50, "unit": "mM"},
      {"measurement": "bacterial burden in the skin", "setting": "[11]; topical in water, 50, 100 and 200 mM, at two hours and daily for four days, day five, none statistically significant", "result": "decreased the bacterial burden"},
      {"measurement": "effectiveness against C. difficile (growth inhibition)", "setting": "C difficile", "result": "effective"}
    ]}
  ]
}
